The text below walks through data of US7875652B2, “Method and composition for treating pain or tinnitus aureum” (UCB Pharma GmbH, priority 2001, dated 2011).

The subject of assay [1] is formalin-induced nociception (paw licking). Description: Subchronic inflammatory nociception in mice (formalin test). The settings on record: for Nociceptive response induced by formalin: 10, 20, 40 mg/kg i.p.; for nociceptive threshold [s]: late phase (20-30 min), 10 mg/kg i.p. The assay is classed as in vivo. As for the experimental part: Subchronic inflammatory nocicoetion in mice was induced by the subplantar injection of formalin (0.02 ml of a 5% solution). Nociceptive behaviour (paw licking) was measured and quantified between 0 and 5 min (acute pain) and between 20 and 30 min (subchronic inflammatory pain) after formalin.
(§1) Drugs and experimental design: SPM 927 and GBP were suspended in 1% methylcellulose and administered i.p. at doses of 10 mg/kg, 20 mg/kg and 40 mg/kg. Pre-treatment time was 30 min before pain measurement. One group of animals served as controls and consequently received an injection of solvent (10 ml/kg) and another group of animals received a reference compound (Carrageenan test: 10 mg/kg indomethacin; Formalin test: 10 mg/kg morphine). Each compound was tested in a separate experiment and each experiment included a control and a reference group. 10 rats per group were used in the Carrageenan test and 6 mice per group in the formalin test.

Assay [2] concerns Carrageenan-induced mechanical hyperalgesia. Description: Carrageenan-induced mechanical hyperalgesia, paw pressure (Randall-Sellito) test. Type of assay: in vivo, rats. The settings on record: for Effect on Carrageenan-induced mechanical hyperalgesia: all doses tested (10, 20, 40 mg/kg i.p.). As for the experimental part: Carrageenan-induced mechanical hvderalcesia in rats was induced by subplantar injection of a 0.1 ml of a 2% carrageenan suspension and measured 3 h afterwards by the paw pressure (Randall-Sellito) test.
as §1

Assay [3] deals with spontaneous pain induced by unilateral chronic constriction injury. Put plainly: Chronic constriction injury (CCI, Bennett-model), spontaneous pain. Type of assay: in vivo, rat. The settings on record: 5-40 mg/kg i.p. The method, then:
(§2) The effectiveness of harkoseride in reducing spontaneous chronic pain, mechanical allodynia, and thermal hyperalgesia was tested using the chronic constriction injury (CCI) model of peripheral neuropathy, one of the best characterised in vivo animal models used to study chronic pain due to peripheral nerve injury. In this model, loose ligatures are placed around the sciatic nerve, which produces axonal swelling and a partial deafferentation manifested as a significant but incomplete loss of axons in the distal portion of the peripheral nerve. One of the prominent behaviours seen following sciatic nerve ligation is the appearance of hind paw guarding, thought to be an indication of an ongoing spontaneous chronic pain. Support for this idea is derived from reports of increased spinal cord neural activity, and increased spontaneous neuronal discharge in spinothalamic tract neurons and in the ventrobasal thalamus in the absence of overt peripheral stimulation. In addition to the appearance of spontaneous pain behaviours, several abnormalities in stimulus evoked pain occur as a result of CCI, including thermal hyperalgesia and mechanical allodynia. […]
Spontaneous pain (ongoing pain without an apparent external stimulus) of the ligated paw was assessed for 5 min following a 10 min acclimation period by use of a rating score (weighted behaviour score scaled 0-5).

The test system of assay [4] is formalin-induced tonic inflammatory nociceptive behaviour. Put plainly: Formalin test, rat (weighted behavioural scoring). Type of assay: in vivo. The method, then: The formalin test is a chemically-induced tonic pain model in which biphasic changes of nociceptive behaviour are assessed and spinal/supraspinal plasticity of nociception is considered as a molecular basis for neuropathic pain particularly during the second (=late) phase of the test, during which most clinically used drugs against neuropathic pain are active.
The compound was tested for anti-nociceptive properties by use of the weighted behavioural scoring method: Freely moving animals underwent observational assessment of the position of the left hind paw according to a rating score scaled 0-3 before and 10, 20, 30 and 40 min after injection of 0.05 ml of sterile 2.5% formalin under the skin on the dorsal surface of the paw.

Assay [5] relates to chronic constriction injury-induced thermal hyperalgesia. Description: Chronic constriction injury (CCI) model, thermal hyperalgesia. The settings on record: 5-40 mg/kg i.p. Type of assay: in vivo, rat. As for the experimental part:
as §2
Thermal hyperalgesia was assessed by means of withdrawal latency in response to radiant heat applied to the subplantar surface of the ligated rat hind paw. […]

Assay [6] concerns mechanical allodynia induced by unilateral nerve ligation. Put plainly: Chronic constriction injury (CCI) model, mechanical allodynia (Von Frey). The assay is classed as in vivo, rat. The settings on record: 5-40 mg/kg i.p. The method, then: as §2
Mechanical sensitivity and allodynia of the ligated rat hind paw was quantified by brisk foot withdrawal in response to normally innocuous mechanical stimuli as described previously. […]

The subject of assay [7] is neuropathic pain (CHUNG), tactile stimulation. Description: Neuropathic pain (CHUNG) test, tactile stimulation on lesioned paw. The following applies: tactile and thermal stimulation. The assay is classed as in vivo, rat. An excerpt: The following Tables 8 and 9 show the effects of harkoseride (hereinafter referred to as SPM 927), carbamazepine, levetiracetam, gabapentin and morphine in the neuropathic pain (CHUNG) test in the rat. Eight (8) rats per group were used.

Assay [8] relates to acute spinal thermal nociception. Put plainly: Tail flick test, rat. The assay is classed as in vivo. An excerpt:
Harkoseride was additionally tested for potential activity in acute spinal thermal nociception using the tail flick test. In this model of acute thermal spinal/reflex hyperalgesia radiant heat is applied to the animal's tail approximately 2 cm from the tip and time latency for withdrawal reaction is automatically assessed by an algometer, a defined maximal stimulus time prevents tissue damage. This test is widely used as an assay for the anti-nociceptive efficacy of pharmacological agents and is highly predictive of acute analgesic efficacy in humans.
Results for 20 and 40 mg/kg harkoseride i.p are shown in table 5 [percent anti-nociception, calculated as [{(post-drug latency)−(pre-drug-latency)}/{(max. latency)−(pre-drug latency)}×100]±SEM, n=12/group]. A baseline or pre-drug tail-flick latency was determined by averaging 5 consecutive measurements taken 2 minutes apart. Vehicle (sterile water 0.04 ml/10 g body weight) or harkoseride were then administered and tail flick latencies recorded at 10-minute intervals for the next 60 minutes.

Structures are written as SMILES. Marks after values point to notes of the source that are not given here.

`NCC1(CC(=O)O)CCCCC1` [GBP, gabapentin, reference compound]: the “Nociceptive response induced by formalin” value in assay [1] is reported as “slightly but not significantly inhibited”. In addition, the “Effect on Carrageenan-induced mechanical hyperalgesia” value in assay [2] is listed as “no significant effect”.
As for `CN1CC[C@]23c4c5ccc(O)c4O[C@H]2[C@@H](O)C=C[C@H]3[C@H]1C5` [Morphine, morphine], the “nociceptive threshold [s]” value in assay [1] (GBP experiment) is 0 ± 0^a s; in assay [1] (SPM 927 experiment) it was 10 ± 8^a s.
Turning to `COC[C@@H](NC(C)=O)C(=O)NCc1ccccc1` [SPM 927, (R)-2-Acetamido-N-benzyl-3-methoxypropionamide], the “Level of spontaneous pain induced by unilateral chronic constriction injury” value in assay [3] is listed as “did not change”. Also, in assay [4] (i.p. just prior to formalin injection), the “Formalin-induced tonic inflammatory nociceptive behaviour” value is given as “dose dependant reduction”. Besides, in assay [4] (late phase), the “Efficacy in the late phase of the rat formalin test” value is “Significant and dose dependent efficacy”. Besides, the “Nociceptive response induced by formalin” value in assay [1] is “dose dependently suppressed”. In assay [1] (mouse, in vivo), the “Efficacy on formalin-induced nociception, similar to that of morphine” value is recorded as “near complete reversal”. Also, the “Effect on Carrageenan-induced mechanical hyperalgesia” value in assay [2] is given as “full reversal”. The “Antinociceptive effect relative to reference compound” value in assay [2] (vs 10 mg/kg indomethacin) is listed as “comparable to that of the reference compound Indomethacin”. Besides, the “Chronic constriction injury-induced thermal hyperalgesia” value in assay [5] is “dose dependently reduced”. In assay [6], the “Intensity of mechanical allodynia induced by unilateral nerve ligation” value was “dose dependently reduced”. In assay [7], the “Potency compared with the reference compounds in the CHUNG test” value was “minimum comparable, but usually more potent than the reference compounds”. Also, the “Effect on the latency of the tail flick reflex” value in assay [8] (20 and 40 mg/kg i.p.) is reported as “little or no effect”. Also, in assay [8] (rat, in vivo), the “Anti-nociceptive effect detectable in the tail-flick test” value is recorded as “no anti-nociceptive effect”.
